In ChEMBL document CHEMBL3102783, “Structural studies, homology modeling and molecular docking of novel non-competitive antagonists of GluK1/GluK2 receptors” (Bioorg Med Chem, 2014):

What was measured:
[1] = biological target: T1, Glutamate receptor ionotropic, kainate 2 (Homo sapiens, UniProt Q13002); test: Displacement of [3H]-kainate from GluK2 receptor (unknown origin)
[2] = biological target: T2, Glutamate receptor ionotropic, kainate 1 (Homo sapiens, UniProt P39086); test: Displacement of [3H]-kainate from GluK1 receptor (unknown origin) at 100 uM
[3] = biological target: T1, Glutamate receptor ionotropic, kainate 2; test: Displacement of [3H]-kainate from GluK2 receptor (unknown origin) at 100 uM
[4] = biological target: T2, Glutamate receptor ionotropic, kainate 1; test: Displacement of [3H]-kainate from GluK1 receptor (unknown origin)

T1 sequence (Q13002 whole entry): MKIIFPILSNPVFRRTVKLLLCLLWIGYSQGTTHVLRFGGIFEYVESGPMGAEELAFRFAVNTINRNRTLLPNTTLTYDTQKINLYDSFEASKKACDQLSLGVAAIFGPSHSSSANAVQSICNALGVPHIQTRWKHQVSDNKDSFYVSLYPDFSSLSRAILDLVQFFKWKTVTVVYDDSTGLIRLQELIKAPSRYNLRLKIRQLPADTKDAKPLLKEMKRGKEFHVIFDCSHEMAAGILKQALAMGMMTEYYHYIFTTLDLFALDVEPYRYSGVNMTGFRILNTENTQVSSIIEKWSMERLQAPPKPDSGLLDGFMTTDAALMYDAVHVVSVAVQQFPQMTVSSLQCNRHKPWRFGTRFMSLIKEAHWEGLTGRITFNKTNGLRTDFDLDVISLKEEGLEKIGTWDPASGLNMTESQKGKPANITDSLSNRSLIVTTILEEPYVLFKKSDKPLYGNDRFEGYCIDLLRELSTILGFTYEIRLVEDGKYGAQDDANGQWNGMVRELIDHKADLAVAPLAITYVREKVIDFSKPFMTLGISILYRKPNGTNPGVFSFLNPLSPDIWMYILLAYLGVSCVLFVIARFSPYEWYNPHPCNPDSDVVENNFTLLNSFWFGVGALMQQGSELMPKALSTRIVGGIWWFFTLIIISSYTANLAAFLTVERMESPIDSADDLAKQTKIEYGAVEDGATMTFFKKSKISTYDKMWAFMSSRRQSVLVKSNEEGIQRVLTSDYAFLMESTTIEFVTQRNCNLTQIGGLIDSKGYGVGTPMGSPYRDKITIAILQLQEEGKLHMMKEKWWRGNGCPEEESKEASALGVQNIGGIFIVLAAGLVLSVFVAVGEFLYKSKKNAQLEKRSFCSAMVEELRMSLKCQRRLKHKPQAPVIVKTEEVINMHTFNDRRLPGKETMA
T2 sequence (P39086 whole entry): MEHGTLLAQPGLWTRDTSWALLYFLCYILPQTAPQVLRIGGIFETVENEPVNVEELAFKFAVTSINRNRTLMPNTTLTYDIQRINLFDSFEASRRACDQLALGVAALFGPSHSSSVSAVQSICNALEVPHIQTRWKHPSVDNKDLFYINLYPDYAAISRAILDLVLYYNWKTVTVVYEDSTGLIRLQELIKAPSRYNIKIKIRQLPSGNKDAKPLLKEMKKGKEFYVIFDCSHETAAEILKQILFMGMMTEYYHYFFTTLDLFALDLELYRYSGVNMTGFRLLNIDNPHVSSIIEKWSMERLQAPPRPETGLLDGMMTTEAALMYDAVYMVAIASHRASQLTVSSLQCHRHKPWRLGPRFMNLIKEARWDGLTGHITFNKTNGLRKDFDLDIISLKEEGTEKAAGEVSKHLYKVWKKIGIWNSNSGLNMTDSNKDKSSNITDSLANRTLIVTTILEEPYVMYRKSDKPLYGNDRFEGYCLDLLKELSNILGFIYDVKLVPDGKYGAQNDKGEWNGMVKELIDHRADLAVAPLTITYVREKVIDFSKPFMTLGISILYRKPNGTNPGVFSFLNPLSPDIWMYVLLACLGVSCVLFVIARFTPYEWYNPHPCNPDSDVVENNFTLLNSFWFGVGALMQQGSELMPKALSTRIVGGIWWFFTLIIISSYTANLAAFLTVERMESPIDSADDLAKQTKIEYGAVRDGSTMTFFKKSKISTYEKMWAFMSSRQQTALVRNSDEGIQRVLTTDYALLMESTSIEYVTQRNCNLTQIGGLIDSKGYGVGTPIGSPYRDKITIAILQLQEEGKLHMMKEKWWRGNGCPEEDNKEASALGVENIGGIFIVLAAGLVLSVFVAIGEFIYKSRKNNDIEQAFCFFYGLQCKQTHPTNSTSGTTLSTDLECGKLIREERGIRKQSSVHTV

SMILES	IC50 [1]	inhibition [2]	inhibition [3]	IC50 [4]
CCn1c(-c2ccc(OC)cc2)c(C)c2ccccc21	10 µM	32%	–	–
CCn1c(-c2ccccc2)c(C)c2cc(OC)ccc21	6 µM	32%	–	–
COc1ccc(-c2c(C)c3cc(OC)ccc3n2Cc2ccc(Cl)cc2)cc1	–	0%	20%	–
CCn1c2c(c3cc(OC)ccc31)CCc1ccccc1-2	–	0%	1%	–
CCn1c(-c2ccccc2)cc2cc(OC)ccc21	6.7 µM	–	–	12 µM
CCn1c(-c2ccc(OC)cc2)c(C)c2cc(OC)ccc21	0.7 µM	–	–	4 µM
